Source: patent US5877320A, “Process for the preparation of organotin compounds useful as cytotoxic agents” (priority 1995, dated 1999)

What was measured:
MCF7 = test: In-vitro cytotoxicity [ID50] against MCF7 (breast cancer); type: cell-based, human; settings: NCI-USA protocol
From the text: (§1) The in-vitro cytotoxicity determined in terms of inhibition dose [ID50 ] of compounds having the formulae 8-11 prepared by the process of the present invention against […] different human cancer cell lines namely MCF7, EVSAT (Breast Cancer), WIDR (Colon Cancer), IGROV (Ovarian Cancer), M19MEL (Melanoma), A498 (Renal Cancer) and H226 (Nonsmall cell lung Cancer) have been measured following NCI-USA protocol [M. R. Boyd, "Status of the NCI preclinical antitumour drug discovery screen. Principles & practice of oncology 3, pp. 1-12 (1989)] alongwith the latest ID50 values of inorganic cancer drugs are presented in Table 1.

WIDR = test: In-vitro cytotoxicity [ID50] against WIDR (colon cancer); type: cell-based, human; settings: NCI-USA protocol
From the text: as §1

EVSAT = test: In-vitro cytotoxicity [ID50] against EVSAT (breast cancer); type: cell-based, human; settings: NCI-USA protocol
From the text: as §1

A498 = test: In-vitro cytotoxicity [ID50] against A498 (renal cancer); type: cell-based, human; settings: NCI-USA protocol
From the text: as §1

H226 = test: In-vitro cytotoxicity [ID50] against H226 (nonsmall cell lung cancer); type: cell-based, human; settings: NCI-USA protocol
From the text: as §1

M19MEL = test: In-vitro cytotoxicity [ID50] against M19MEL (melanoma); type: cell-based, human; settings: NCI-USA protocol
From the text: as §1

IGROV = test: In-vitro cytotoxicity [ID50] against IGROV (ovarian cancer); type: cell-based, human; settings: NCI-USA protocol
From the text: as §1

[1] = tested on: P388 lymphocytic leukemia; settings: in words; literature; cited from earlier work

Row | Compound | Anti-tumour activity [ID50] (MCF7) | Anti-tumour activity [ID50] (WIDR) | Anti-tumour activity [ID50] (EVSAT) | Anti-tumour activity [ID50] (A498) | Anti-tumour activity [ID50] (H226) | Anti-tumour activity [ID50] (M19MEL) | Anti-tumour activity [ID50] (IGROV) | activity against P388 in mice [1]
1 | N.N.O=C([O-])C1(C(=O)[O-])CCC1.[Pt+2] [Carboplatin, reference compound] | 10.5 µg/mL | 3.5 µg/mL | 4.5 µg/mL | 18 µg/mL | 25 µg/mL | 5.5 µg/mL | 2.4 µg/mL | –
2 | N.N.[Cl][Pt][Cl] [cis-platin, reference compound] | 1.4 µg/mL | 1.55 µg/mL | 0.92 µg/mL | 1.2 µg/mL | 3.158 µg/mL | 0.78 µg/mL | 0.227 µg/mL | –
3 | [Cl][Sn]([Cl])([c]1ccccc1)[CH]1CCCCC1 [cyclohexyl-(phenyl)tindichloride] | – | – | – | – | – | – | – | inhibition of P-388 in mice
4 | bipyridine complex of dibenzyltindichloride [compound 11] | 0.12 µg/mL | 0.8 µg/mL | 0.15 µg/mL | 0.16 µg/mL | 0.35 µg/mL | 0.32 µg/mL | 0.08 µg/mL | –
5 | bis(imidazole) complex of dibenzyltindichloride [compound 10] | 0.7 µg/mL | 3.2 µg/mL | 0.4 µg/mL | 1 µg/mL | 1.3 µg/mL | 1.5 µg/mL | 3.2 µg/mL | –
6 | bis(indole) complex of dibenzyltindichloride [compound 8] | 0.15 µg/mL | 0.85 µg/mL | 0.15 µg/mL | 0.2 µg/mL | 0.2 µg/mL | 0.4 µg/mL | 0.11 µg/mL | –
7 | bis(thiophene) complex of dibenzyltindichloride [compound 9] | 0.068 µg/mL | 0.55 µg/mL | 0.13 µg/mL | 0.11 µg/mL | 0.4 µg/mL | 0.25 µg/mL | 0.05 µg/mL | –
8 | dibenzyl(phenanthroline)-tindichloride | – | – | – | – | – | – | – | inactive
